Counter-ions that a name gives are not always drawn.
Each compound was assayed against T1, rHDAC6 (Homo sapiens, UniProt Q9UBN7) (assay: rHDAC6 enzymatic assay (recombinant FLAG-HDAC6)). Details: FLAG-HDAC6 from HEK293; 10 μM Ac-NH-GGK(Ac)-AMC, 3 h at 30° C.; read-out: rHDAC6 [pIC50] (converted).
T1 construct: FLAG; made in house
T1 sequence (Q9UBN7 1-1215): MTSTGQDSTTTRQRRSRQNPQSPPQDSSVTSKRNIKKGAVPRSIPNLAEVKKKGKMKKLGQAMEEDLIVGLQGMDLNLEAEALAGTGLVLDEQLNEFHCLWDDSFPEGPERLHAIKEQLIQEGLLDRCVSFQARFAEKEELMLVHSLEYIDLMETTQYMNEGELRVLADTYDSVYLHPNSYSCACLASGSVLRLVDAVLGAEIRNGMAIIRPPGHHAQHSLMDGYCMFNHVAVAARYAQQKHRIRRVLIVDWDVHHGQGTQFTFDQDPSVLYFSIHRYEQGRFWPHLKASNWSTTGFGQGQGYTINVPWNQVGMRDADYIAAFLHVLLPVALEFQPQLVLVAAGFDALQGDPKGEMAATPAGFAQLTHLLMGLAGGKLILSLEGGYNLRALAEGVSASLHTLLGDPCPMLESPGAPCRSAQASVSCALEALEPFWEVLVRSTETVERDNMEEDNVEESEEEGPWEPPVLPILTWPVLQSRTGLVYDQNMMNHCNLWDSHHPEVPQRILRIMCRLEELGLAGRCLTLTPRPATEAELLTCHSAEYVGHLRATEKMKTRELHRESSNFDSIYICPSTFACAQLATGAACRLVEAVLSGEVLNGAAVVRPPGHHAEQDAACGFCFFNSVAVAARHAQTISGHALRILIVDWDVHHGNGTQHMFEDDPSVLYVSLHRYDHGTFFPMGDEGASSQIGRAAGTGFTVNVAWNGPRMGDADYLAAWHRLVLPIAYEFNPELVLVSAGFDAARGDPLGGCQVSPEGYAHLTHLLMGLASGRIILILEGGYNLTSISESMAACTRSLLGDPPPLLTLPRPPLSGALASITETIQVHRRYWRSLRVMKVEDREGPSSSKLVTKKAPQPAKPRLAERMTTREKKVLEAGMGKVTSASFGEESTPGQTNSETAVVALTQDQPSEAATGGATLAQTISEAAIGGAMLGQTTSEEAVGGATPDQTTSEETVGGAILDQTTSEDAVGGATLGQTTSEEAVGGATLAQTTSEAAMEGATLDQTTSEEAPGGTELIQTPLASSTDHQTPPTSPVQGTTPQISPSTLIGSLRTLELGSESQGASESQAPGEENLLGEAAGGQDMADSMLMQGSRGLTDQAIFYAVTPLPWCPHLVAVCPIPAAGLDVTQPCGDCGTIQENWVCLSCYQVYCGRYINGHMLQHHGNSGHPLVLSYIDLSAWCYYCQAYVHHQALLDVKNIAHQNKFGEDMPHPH
Type: biochemical
Excerpt: Human HDAC1 and HDAC6 fused with the FLAG epitope are stably expressed in HEK293 cells while human HDAC3 and HDAC8 fused with the FLAG epitope are overexpressed in baculo-virus infected insect (Sf21) cells. To ensure stability of FLAG-HDAC3 the SMRT protein is co-expressed in the corresponding insect cells. […] FLAG-HDAC3 and FLAG-HDAC8 are also purified by M2-agarose affinity chromatography after mass cultivation of the insect cells and cell lysis.
The HDAC enzyme activity assay is done as described by Wegener et al. (Chem. & Biol. 10, 61-68, 2003). Briefly 40 μl of a 1:100 dilution (=0.4 μl) nuclear HeLa extract (mixture of class I and II HDACs), 29 μl enzyme buffer (15 mM Tris HCl pH 8.1, 0.25 mM EDTA, 250 mM NaCl, 10% v:v glycerol) and 1 μl test compound are added to a well of a 96 well microtiter plate and reaction started by addition of 3 μl substrate (Ac-NH-GGK(Ac)-AMC; final concentration 25 μM and final volume […]). […] After incubation at room temperature for further 40 min, fluorescence is measured using a Wallac Victor 1420 multilabel counter (Ex 355 nm, Em 460 nm) for quantification of AMC (7-amino-4-methylcoumarin) generated by trypsine cleavage of the deacetylated peptide. […] The corresponding pIC50 values of the compounds for HDAC inhibitory activity are determined from the concentration-effect curves by means of non-linear regression (Graphpad Prism software).
The HDAC1, HDAC3 and HDAC6 enzymatic assays are done with slight modifications with recombinant FLAG-HDAC1 and FLAG-HDAC6 proteins isolated from HEK293 cell lysates or recombinant FLAG-HDAC3 isolated from insect cells, respectively. The HDAC8 enzymatic assay using recombinant FLAG-HDAC8 isolated from insect cells is done with a different substrate. About 4.5 ng/well FLAG-HDAC1 and 3.1 ng/well FLAG-HDAC6 (dependent on batches and specific activity) are incubated with 6 μM or 10 μM Ac-NH-GGK(Ac)-AMC substrate, respectively, for 3 h at 30° C. About 1.7 ng/well FLAG-HDAC3 is incubated with 6 μM Ac-NH-GGK(Ac)-AMC substrate for 2 h at 30° C., while approximately 130 ng/well FLAG-HDAC8 is incubated with 50 μM Ac-RHK(Ac)K(Ac)-AMC substrate for 3 h at 30° C. Termination of the reaction and all further steps are done as described for HeLa cell nuclear extracts as a source for HDAC enzymatic activity. The corresponding pIC50 values of the compounds for HDAC1, HDAC3, HDAC6 and HDAC8 inhibitory activity are determined from the concentration-effect curves by means of non-linear regression.
For `COc1ccc2[nH]c(C(=O)N3CCc4ccc(C(=O)NO)cc4C3)cc2c1` [Example 24, N-Hydroxy-2-[(5-methoxy-1H-indol-2-yl)carbonyl]-1,2,3,4-tetrahydroisoquinoline-7-carboxamide], the IC50 was 1 to 100 nM. `O=C(NO)c1ccc2c(c1)CN(C(=O)C1CCOC1)CC2` (stereo not shown) [Example 20, N-Hydroxy-2-(tetrahydrofuran-3-ylcarbonyl)-1,2,3,4-tetrahydroisoquinoline-7-carboxamide] gave an IC50 of 100 to 1000 nM. With `O=C(NO)c1ccc2c(c1)CCN(C(=O)C1CCC1)C2` [Example 3, 2-(Cyclobutylcarbonyl)-N-hydroxy-1,2,3,4-tetrahydroisoquinoline-6-carboxamide] the IC50 was 1 to 100 nM. `Cc1nccn1CC(=O)N1CCc2cc(C(=O)NO)ccc2C1` [Example 10, N-Hydroxy-2-[(2-methyl-1H-imidazol-1-yl)acetyl]-1,2,3,4-tetrahydroisoquinoline-6-carboxamide hydrochloride] showed an IC50 of 100 to 1000 nM. `O=C(NO)c1ccc2c(c1)CN(C(=O)Cc1c[nH]c3ccccc13)CC2` [Example 18, N-Hydroxy-2-(1H-indol-3-ylacetyl)-1,2,3,4-tetrahydroisoquinoline-7-carboxamide] showed an IC50 of 1 to 100 nM. In the case of `COCCCOC(=O)N1CCc2cc(C(=O)NO)ccc2C1` [Example 6, 3-Methoxypropyl-6-(hydroxycarbamoyl)-3,4-dihydroisoquinoline-2(1H)-carboxylate], the IC50 is reported as 100 to 1000 nM. `COCCCNC(=O)N1CCc2cc(C(=O)NO)ccc2C1` [Example 5, N6-Hydroxy-N2-(3-methoxypropyl)-3,4-dihydroisoquinoline-2,6(1H)-dicarboxamide] gave an IC50 of 1 to 100 nM. Work on `O=C(NO)c1ccc2c(c1)CCN(C(=O)C1CCOC1)C2` (stereo not shown) [Example 13, N-Hydroxy-2-(tetrahydrofuran-3-ylcarbonyl)-1,2,3,4-tetrahydroisoquinoline-6-carboxamide] yielded an IC50 of 100 to 1000 nM. Compound `O=C(NO)c1ccc2c(c1)CN(C(=O)Cc1cccnc1)CC2` [Example 19, N-Hydroxy-2-(pyridin-3-ylacetyl)-1,2,3,4-tetrahydroisoquinoline-7-carboxamide hydrochloride] has an IC50 of 1 to 100 nM. For `O=C(NO)c1ccc2c(c1)CN(C(=O)NCCc1ccccc1)CC2` [Example 22, N7-Hydroxy-N2-(2-phenylethyl)-3,4-dihydroisoquinoline-2,7(1H)-dicarboxamide], the IC50 was 1 to 100 nM. `CN(C)CCCC(=O)N1CCc2cc(C(=O)NO)ccc2C1` [Example 9, 2-[4-(Dimethylamino)butanoyl]-N-hydroxy-1,2,3,4-tetrahydroisoquinoline-6-carboxamide hydrochloride] was tested, and the IC50 was 100 to 1000 nM. Compound `O=C(NO)c1ccc2c(c1)CCN(C(=O)CCc1cccnc1)C2` [Example 7, N-Hydroxy-2-(3-pyridin-3-ylpropanoyl)-1,2,3,4-tetrahydroisoquinoline-6-carboxamide hydrochloride] has an IC50 of 1 to 100 nM. Compound `CC(=O)N1CCc2cc(C(=O)NO)ccc2C1` [Example 12, 2-Acetyl-N-hydroxy-1,2,3,4-tetrahydroisoquinoline-6-carboxamide] has an IC50 of 100 to 1000 nM. `COc1ccc2[nH]c(C(=O)N3CCc4cc(C(=O)NO)ccc4C3)cc2c1` [Example 15, N-Hydroxy-2-[(5-methoxy-1H-indol-2-yl)carbonyl]-1,2,3,4-tetrahydroisoquinoline-6-carboxamide] gave an IC50 of 1 to 100 nM. In the case of `O=C(NO)c1ccc2c(c1)CN(C(=O)Cc1ccccn1)CC2` [Example 21, N-Hydroxy-2-(pyridin-2-ylacetyl)-1,2,3,4-tetrahydroisoquinoline-7-carboxamide hydrochloride], the IC50 is reported as 1 to 100 nM. In the case of `O=C(NO)c1ccc2c(c1)CCN(C(=O)Cc1c[nH]c3ccccc13)C2` [Example 1, N-Hydroxy-2-(indol-3-ylacetyl)-1,2,3,4-tetrahydroisoquinoline-6-carboxamide hydrochloride], the IC50 is reported as 1 to 100 nM. Work on `O=C(NO)c1ccc2c(c1)CCN(C(=O)Cc1cccnc1)C2` [Example 8, N-Hydroxy-2-(pyridin-3-ylacetyl)-1,2,3,4-tetrahydroisoquinoline-6-carboxamide hydrochloride] yielded an IC50 of 100 to 1000 nM. Compound `Cc1ccc(C(=O)N2CCc3ccc(C(=O)NO)cc3C2)cc1` [Example 23, N-Hydroxy-2-(4-methylbenzoyl)-1,2,3,4-tetrahydroisoquinoline-7-carboxamide] has an IC50 of 1 to 100 nM. In the case of `COCCOCC(=O)N1CCc2cc(C(=O)NO)ccc2C1` [Example 11, N-Hydroxy-2-[(2-methoxyethoxy)acetyl]-1,2,3,4-tetrahydroisoquinoline-6-carboxamide], the IC50 is reported as 100 to 1000 nM. `CNC(=O)N1CCc2cc(C(=O)NO)ccc2C1` [Example 4, N6-Hydroxy-N2-methyl-3,4-dihydroisoquinoline-2,6(1H)-dicarboxamide] was tested, and the IC50 was 1 to 100 nM. `O=C(NO)c1ccc2c(c1)CCN(C(=O)C1CC1)C2` [Example 16, N-Hydroxy-2-(cyclopropylcarbonyl)-1,2,3,4-tetrahydroisoquinoline-6-carboxamide] was tested, and the IC50 was 1 to 100 nM. `CC#CC(=O)N1CCc2ccc(C(=O)NO)cc2C1` [Example 17, 2-But-2-ynoyl-N-hydroxy-1,2,3,4-tetrahydroisoquinoline-7-carboxamide] was tested, and the IC50 was 1 to 100 nM.

From patent US8575193B2, “N-substituted tetrahydroisoquinoline/isoindoline hydroxamic acid compounds” (4SC AG, priority 2008, dated 2013)
